Read-outs that look alike come from different tables or passages of the source.
Columns and labels:
Format in all cases: cell-based
[1] = biological target: T1, hGIPR (Homo sapiens, UniProt P48546); experiment: Functional cAMP formation (HTRF) in HEK-293 clonal cells expressing hGIPR, 0.1% bovine casein, without or with 1.0% human serum albumin; conditions: 37° C.; for Emax: HEK293, cAMP, percent of maximal response to GIP(1-42)NH2, read-out: hGIPR Emax, % ± SEM; for EC50: cAMP, 0.1% bovine casein (no human serum albumin), geometric mean, read-out: hGIPR EC50, nM (SEM, n)
T1 construct: expressed in transfected cells
T1 sequence (P48546 22-466): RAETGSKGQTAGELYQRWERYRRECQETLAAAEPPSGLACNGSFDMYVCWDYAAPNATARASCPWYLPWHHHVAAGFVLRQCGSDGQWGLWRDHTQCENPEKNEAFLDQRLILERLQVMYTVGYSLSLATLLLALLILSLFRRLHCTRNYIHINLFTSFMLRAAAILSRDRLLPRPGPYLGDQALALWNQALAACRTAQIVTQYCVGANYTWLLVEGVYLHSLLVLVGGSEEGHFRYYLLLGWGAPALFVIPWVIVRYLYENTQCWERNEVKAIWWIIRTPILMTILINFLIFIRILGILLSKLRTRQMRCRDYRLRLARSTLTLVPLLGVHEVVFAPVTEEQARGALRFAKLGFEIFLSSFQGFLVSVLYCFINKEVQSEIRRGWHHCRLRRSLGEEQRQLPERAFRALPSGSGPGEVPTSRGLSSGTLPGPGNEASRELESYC
How it was run: (§1)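 Readings of the HTRF 665/620 nm ratio, which falls as cAMP rises, were converted to nM cAMP using a standard curve after 30 min peptide exposure at 37° C.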

[2] = biological target: T2, hGCGR (Homo sapiens, UniProt P47871); experiment: Functional cAMP formation (HTRF) in HEK-293 clonal cells expressing hGCGR, 0.1% bovine casein, without or with 1.0% human serum albumin; conditions: cAMP, 37° C., read-out: hGCGR EC50, nM (SEM, n)
T2 construct: expressed in transfected cells
T2 sequence (P47871 26-477): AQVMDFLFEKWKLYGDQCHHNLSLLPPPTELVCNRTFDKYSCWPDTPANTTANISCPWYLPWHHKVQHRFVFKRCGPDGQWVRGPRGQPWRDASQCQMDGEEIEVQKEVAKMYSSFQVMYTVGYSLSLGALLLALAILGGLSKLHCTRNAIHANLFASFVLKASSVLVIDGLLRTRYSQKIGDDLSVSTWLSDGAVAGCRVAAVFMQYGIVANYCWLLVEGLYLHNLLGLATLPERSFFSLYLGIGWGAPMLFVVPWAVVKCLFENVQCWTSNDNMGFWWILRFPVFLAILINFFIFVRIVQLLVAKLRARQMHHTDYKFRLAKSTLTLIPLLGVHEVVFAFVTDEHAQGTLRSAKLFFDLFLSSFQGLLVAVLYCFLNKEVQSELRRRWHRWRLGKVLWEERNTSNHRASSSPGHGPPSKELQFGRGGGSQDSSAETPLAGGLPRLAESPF
How it was run: as §1

[3] = biological target: hGLP-1R (Homo sapiens, UniProt P43220); experiment: Functional cAMP formation (HTRF) in HEK-293 clonal cells expressing hGLP-1R, 0.1% bovine casein, without or with 1.0% human serum albumin; set-up: expressed in transfected cells; conditions: 37° C.; for EC50: cAMP, read-out: hGLP-1R EC50, nM (SEM, n); for Emax: HEK293, cAMP, percent of maximal response to GLP-1(7-36)NH2, read-out: hGLP-1R Emax, % ± SEM
Sequence of hGLP-1R (P43220 24-463): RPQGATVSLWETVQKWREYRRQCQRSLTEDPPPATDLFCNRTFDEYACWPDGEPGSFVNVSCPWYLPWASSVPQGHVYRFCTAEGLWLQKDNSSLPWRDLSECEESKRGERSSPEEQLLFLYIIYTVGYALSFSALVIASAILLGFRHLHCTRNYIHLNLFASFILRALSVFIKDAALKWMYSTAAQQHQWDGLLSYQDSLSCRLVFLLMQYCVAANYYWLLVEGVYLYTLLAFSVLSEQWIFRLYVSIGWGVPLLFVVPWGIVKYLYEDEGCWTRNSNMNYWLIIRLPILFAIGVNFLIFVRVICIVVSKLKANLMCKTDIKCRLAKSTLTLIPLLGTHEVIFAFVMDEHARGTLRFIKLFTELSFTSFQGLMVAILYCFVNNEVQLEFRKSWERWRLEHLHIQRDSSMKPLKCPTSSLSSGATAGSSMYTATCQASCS
How it was run: as §1

[4] = 0.1% bovine casein and 1.0% human serum albumin
[5] = 0.1% bovine casein, arithmetic mean
[6] = 0.1% bovine casein (no human serum albumin), geometric mean
[7] = 0.1% bovine casein and 1.0% human serum albumin, geometric mean (SEM, n)

| Compound | Emax [1, 4] [%] | Emax [1, 5] [%] | EC50 [1] [nM] | EC50 [2, 6] [nM] | EC50 [2, 7] [nM] | EC50 [3, 6] [nM] | EC50 [3, 7] [nM] | Emax [3, 5] [%] | Emax [3, 4] [%] |
| --- | --- | --- | --- | --- | --- | --- | --- | --- | --- |
| CC[C@H](C)[C@H](NC(=O)[C@H](CC(C)C)NC(=O)[C@](C)(Cc1ccc(O)cc1)NC(=O)[C@H](CCCCNC(=O)COCCOCCNC(=O)COCCOCCNC(=O)CC[C@H](NC(=O)CCCCCCCCCCCCC(=O)O)C(=O)O)NC(=O)[C@@H](NC(=O)[C@H](Cc1ccccc1)NC(=O)[C@H](CCC(=O)O)NC(=O)C(C)(C)NC(=O)[C@H](CCC(N)=O)NC(=O)[C@H](C)NC(=O)[C@H](CCC(N)=O)NC(=O)[C@H](CCCN)NC(=O)[C@H](CC(=O)O)NC(=O)[C@H](CC(C)C)NC(=O)[C@](C)(CC(C)C)NC(=O)[C@@H](NC(=O)C(C)(C)NC(=O)[C@H](Cc1ccc(O)cc1)NC(=O)[C@H](CC(=O)O)NC(=O)[C@H](CO)NC(=O)[C@@H](NC(=O)[C@](C)(Cc1ccccc1F)NC(=O)[C@@H](NC(=O)CNC(=O)[C@H](CCC(=O)O)NC(=O)C(C)(C)NC(=O)[C@@H](N)Cc1ccc(O)cc1)[C@@H](C)O)[C@@H](C)O)[C@@H](C)CC)[C@@H](C)CC)C(=O)N[C@@H](CCCCNC(=O)COCCOCCNC(=O)COCCOCCNC(=O)CC[C@H](NC(=O)CCCCCCCCCCCCC(=O)O)C(=O)O)C(=O)NCC(=O)NCC(=O)N1CCC[C@H]1C(=O)N[C@@H](CO)C(=O)N[C@@H](CO)C(=O)NCC(=O)N[C@@H](C)C(=O)N1CCC[C@H]1C(=O)N1CCC[C@H]1C(=O)N1CCC[C@H]1C(=O)N[C@@H](CO)C(N)=O [Example 412] | 87.5 | 95.4 | 0.0108 | > 9950 | > 9950 | 0.16 | 18.3 |  |  |
| CCCCCCCCCCCC(=O)N[C@@H](CCC(=O)NCCOCCOCC(=O)NCCOCCOCC(=O)NCCCC[C@H](NC(=O)[C@H](CCCN)NC(=O)[C@H](CC(=O)O)NC(=O)[C@H](CC(C)C)NC(=O)[C@](C)(CC(C)C)NC(=O)[C@@H](NC(=O)C(C)(C)NC(=O)[C@H](Cc1ccncc1)NC(=O)[C@H](CC(=O)O)NC(=O)[C@H](CO)NC(=O)[C@@H](NC(=O)[C@](C)(Cc1ccccc1F)NC(=O)[C@@H](NC(=O)CNC(=O)[C@H](CCC(=O)O)NC(=O)C(C)(C)NC(=O)[C@@H](N)Cc1ccc(O)cc1)[C@@H](C)O)[C@@H](C)O)[C@@H](C)CC)C(=O)N[C@@H](C)C(=O)N[C@@H](CCC(N)=O)C(=O)NC(C)(C)C(=O)N[C@@H](CCCCNC(=O)COCCOCCNC(=O)COCCOCCNC(=O)CC[C@H](NC(=O)CCCCCCCCCCC)C(=O)O)C(=O)N[C@@H](Cc1ccccc1)C(=O)N[C@H](C(=O)N[C@H](CCC(=O)O)C(=O)N[C@@](C)(Cc1ccc(O)cc1)C(=O)N[C@@H](CC(C)C)C(=O)N[C@H](C(=O)N[C@@H](CCCN)C(=O)NCC(=O)NCC(=O)N1CCC[C@H]1C(=O)N[C@@H](CO)C(=O)N[C@@H](CO)C(=O)NCC(=O)N[C@@H](C)C(=O)N1CCC[C@H]1C(=O)N1CCC[C@H]1C(=O)N1CCC[C@H]1C(=O)N[C@@H](CO)C(N)=O)[C@@H](C)CC)[C@@H](C)CC)C(=O)O [Example 413] | 91.8 |  | 0.0146 | > 9950 | > 9950 | 0.234 | 5.47 | 96.9 |  |
| CCCCCCCCCCCC(=O)N[C@@H](CCC(=O)NCCOCCOCC(=O)NCCOCCOCC(=O)NCCCC[C@H](NC(=O)[C@H](CCCN)NC(=O)[C@H](CC(=O)O)NC(=O)[C@H](CC(C)C)NC(=O)[C@](C)(CC(C)C)NC(=O)[C@@H](NC(=O)C(C)(C)NC(=O)[C@H](Cc1ccncc1)NC(=O)[C@H](CC(=O)O)NC(=O)[C@H](CO)NC(=O)[C@@H](NC(=O)[C@](C)(Cc1ccccc1F)NC(=O)[C@@H](NC(=O)CNC(=O)[C@H](CCC(=O)O)NC(=O)C(C)(C)NC(=O)[C@@H](N)Cc1ccc(O)cc1)[C@@H](C)O)[C@@H](C)O)[C@@H](C)CC)C(=O)N[C@@H](C)C(=O)N[C@@H](CCC(N)=O)C(=O)NC(C)(C)C(=O)N[C@@H](Cc1ccncc1)C(=O)N[C@@H](Cc1ccccc1)C(=O)N[C@H](C(=O)N[C@H](CCC(=O)O)C(=O)N[C@@](C)(Cc1ccc(O)cc1)C(=O)N[C@@H](CC(C)C)C(=O)N[C@H](C(=O)N[C@@H](CCCCNC(=O)COCCOCCNC(=O)COCCOCCNC(=O)CC[C@H](NC(=O)CCCCCCCCCCC)C(=O)O)C(=O)NCC(=O)NCC(=O)N1CCC[C@H]1C(=O)N[C@@H](CO)C(=O)N[C@@H](CO)C(=O)NCC(=O)N[C@@H](C)C(=O)N1CCC[C@H]1C(=O)N1CCC[C@H]1C(=O)N1CCC[C@H]1C(=O)N[C@@H](CO)C(N)=O)[C@@H](C)CC)[C@@H](C)CC)C(=O)O [Example 416] | 83 | 99 | 0.0214 | > 9950 | > 9950 | 0.332 |  |  | 109 |
| CCCCCCCCCCCC(=O)N[C@@H](CCC(=O)NCCOCCOCC(=O)NCCOCCOCC(=O)NCCCC[C@H](NC(=O)[C@H](CO)NC(=O)[C@@H]1CCCN1C(=O)[C@@H]1CCCN1C(=O)[C@@H]1CCCN1C(=O)[C@H](C)NC(=O)CNC(=O)[C@H](CO)NC(=O)[C@H](CO)NC(=O)[C@@H]1CCCN1C(=O)CNC(=O)CNC(=O)[C@H](CCC(=O)O)NC(=O)[C@@H](NC(=O)[C@H](CC(C)C)NC(=O)[C@](C)(Cc1ccc(O)cc1)NC(=O)[C@@H](CCC(=O)O)NC(=O)[C@@H](NC(=O)[C@H](Cc1ccccc1)NC(=O)[C@H](Cc1ccncc1)NC(=O)C(C)(C)NC(=O)[C@H](CCC(N)=O)NC(=O)[C@H](C)NC(=O)[C@H](CCCCNC(=O)COCCOCCNC(=O)COCCOCCNC(=O)CC[C@H](NC(=O)CCCCCCCCCCC)C(=O)O)NC(=O)[C@H](CCCN)NC(=O)[C@H](CC(=O)O)NC(=O)[C@H](CC(C)C)NC(=O)[C@](C)(CC(C)C)NC(=O)[C@@H](NC(=O)C(C)(C)NC(=O)[C@H](Cc1ccncc1)NC(=O)[C@H](CC(=O)O)NC(=O)[C@H](CO)NC(=O)[C@@H](NC(=O)[C@](C)(Cc1ccccc1F)NC(=O)[C@@H](NC(=O)CNC(=O)[C@H](CCC(=O)O)NC(=O)C(C)(C)NC(=O)[C@@H](N)Cc1ccc(O)cc1)[C@@H](C)O)[C@@H](C)O)[C@@H](C)CC)[C@@H](C)CC)[C@@H](C)CC)C(N)=O)C(=O)O [Example 420] | 89.7 |  | 0.00964 | > 9950 | > 9950 | 0.123 |  |  | 109 |
| CCCCCCCCCCCC(=O)N[C@@H](CCC(=O)NCCOCCOCC(=O)NCCCC[C@H](NC(=O)[C@H](CCCN)NC(=O)[C@H](CC(=O)O)NC(=O)[C@H](CC(C)C)NC(=O)[C@](C)(CC(C)C)NC(=O)[C@@H](NC(=O)C(C)(C)NC(=O)[C@H](CCCCNC(=O)COCCOCCNC(=O)CC[C@H](NC(=O)CCCCCCCCCCC)C(=O)O)NC(=O)[C@H](CC(=O)O)NC(=O)[C@H](CO)NC(=O)[C@@H](NC(=O)[C@](C)(Cc1ccccc1F)NC(=O)[C@@H](NC(=O)CNC(=O)[C@H](CCC(=O)O)NC(=O)C(C)(C)NC(=O)[C@@H](N)Cc1ccc(O)cc1)[C@@H](C)O)[C@@H](C)O)[C@@H](C)CC)C(=O)N[C@@H](C)C(=O)N[C@@H](CCC(N)=O)C(=O)NC(C)(C)C(=O)N[C@@H](CCC(=O)O)C(=O)N[C@@H](Cc1ccccc1)C(=O)N[C@H](C(=O)N[C@H](CCC(=O)O)C(=O)N[C@@](C)(Cc1ccc(O)cc1)C(=O)N[C@@H](CC(C)C)C(=O)N[C@H](C(=O)N[C@@H](CCC(=O)O)C(=O)NCC(=O)NCC(=O)N1CCC[C@H]1C(=O)N[C@@H](CO)C(=O)N[C@@H](CO)C(=O)NCC(=O)N[C@@H](C)C(=O)N1CCC[C@H]1C(=O)N1CCC[C@H]1C(=O)N1CCC[C@H]1C(=O)N[C@@H](CO)C(N)=O)[C@@H](C)CC)[C@@H](C)CC)C(=O)O [Example 425] | 89.9 | 97.6 | 0.00943 | > 9950 | > 9950 | 0.0965 |  |  |  |
